{"source": "patent US11078157B1", "about": "“Compound embodiments that release H2S by reaction with a reactive compound and methods of making and using the same” (University of Oregon, priority 2018, dated 2021)", "experiment": "Reaction product analysis (preparative isolation and HPLC)", "type": "physicochemical", "details": "preparative scale reaction, not further hydrolyzed to N-benzoyl-L-cysteine", "method": "Compound 604a (0.39 mmol, 1.0 equivalents) was dissolved in 15 mL of 2:1 THF/PBS (10 mM, pH 7.4). L-cysteine methyl ester hydrochloride (1.17 mmol, 3.0 equivalents) was added in a single portion and stirred at room temperature for 2 hours. The reaction mixture was diluted with deionized H2O (˜20 mL) and extracted with CH2Cl2 (3×20 mL). The combined organic extracts were washed with brine and dried over MgSO4. After filtration, the solvent was removed under reduced pressure, and the purified by preparative thin layer chromatography (1:1 CH2Cl2 in hexanes). Compound 604a Rf=0.75 (63.6 mg, 76%) and CysDHT Rf=0.03 (11.0 mg, 13%) were isolated and characterized by ^1H and ^13C{^1H} NMR spectroscopy. The significant recovery of compound 604a is likely due to the lack of buffering capacity in the preparative-scale reaction.\nTo a 20 mL solution of 10% THF in PBS (10 mM, pH 7.4) containing 2 mM L-cysteine methyl ester (20 equivalents), 20 μL of 100 mM compound 604a in THF was added and stirred at room temperature. After 1 hour, a 1 mL reaction aliquot was analyzed by HPLC. HPLC analysis was performed on an Agilent 1260 HPLC instrument with a Poroshell 120 EC-C18 4.6×100 mm column and monitored at 280 nm. […] The concentration of CysDHT and phenol present at the end of the reaction were determined by measurement against calibration curves for each compound (see FIG. 4). […]"}
{"compound": "COC(=O)C1CSC(c2ccccc2)=N1", "note": "(stereo not shown) [CysDHT, Methyl 2-phenyl-4,5-dihydrothiazole-4-carboxylate]", "values": [{"measurement": "stability of dihydrothiazole under aqueous conditions", "result": "stable under aqueous conditions"}]}
